This is an account of results in US20250144067A1, “PERSONALIZED STARVATION THERAPY FOR CANCER” (Faeth Therapeutics, Inc., priority 2021, published 2025).

Assay [1] deals with NCI-H292 lung cancer cells. As to the kind of experiment: FDA drug screening, complete media vs cholesterol-free media without statin (TABLE 1). Type of assay: cell-based, human.
In assay [2] the test system is NCI-H292 lung cancer cells. Kind of assay: FDA drug screening, complete media vs cholesterol-free media with simvastatin (TABLE 2). Type of assay: cell-based, human. The following applies: for Cholesterol-free media + simvastatin (0.04 μM) / Complete Media: NCI-H292 cells.
[3] abbreviates: Complete minus Cholesterol-free, >0 enhanced anti-cancer activity, about 0 neutral, <0 antagonist.
[4] abbreviates: NCI-H292 cells, cholesterol-free media without statin, FDA drug library screen.
[5] abbreviates: NCI-H292 cells, complete media, FDA drug library screen.
Where [6] appears, read: cholesterol-free media with simvastatin 0.04 μM, cell growth value in FDA drug screen.
Setting [7] is: complete media, cell growth value in FDA drug screen.
The mark [8] stands for this setting: complete media minus cholesterol-free media + simvastatin, >0 enhanced anti-cancer activity, about 0 neutral, <0 antagonist.
Setting [9] is: FDA drug library screen, cholesterol-free media with simvastatin 0.04 μM.
The mark [10] stands for this setting: FDA drug library screen, complete media.
Setting [11] is: cholesterol-free media with simvastatin 0.04 μM, FDA drug library screen (TABLE 2).
Where [12] appears, read: complete media, FDA drug library screen (TABLE 2).
Setting [13] is: complete media minus cholesterol-free media + simvastatin (0.04 μM), >0 enhanced anti-cancer activity, about 0 neutral, <0 antagonist.
Where [14] appears, read: Complete minus Cholesterol-free, greater than 0 enhanced anti-cancer activity, about 0 neutral, below 0 antagonists.
The mark [15] stands for this setting: NCI-H292 cells in cholesterol-free media without statin.
Where [16] appears, read: NCI-H292 cells in complete media.
[17] abbreviates: NCI-H292 cells, cholesterol-free media without statin.
Where [18] appears, read: complete vs cholesterol-free media, >0 enhanced anti-cancer activity, about 0 neutral, <0 antagonist.
Where [19] appears, read: Complete minus Cholesterol-free, […].
Setting [20] is: NCI-H292 cells, FDA drug library screen, cholesterol-free media without statin.
[21] abbreviates: NCI-H292 cells, FDA drug library screen, complete media.
Where [22] appears, read: complete media minus cholesterol-free media + simvastatin (0.04 μM), […].
Where [23] appears, read: complete media vs cholesterol-free media + simvastatin (0.04 μM), >0 enhanced anti-cancer activity, about 0 neutral, <0 antagonist.
The mark [24] stands for this setting: Complete minus Cholesterol-free, greater than 0 enhanced anti-cancer activity, about 0 neutral, below 0 antagonist.
Setting [25] is: FDA library drug in cholesterol-free media with simvastatin 0.04 μM.
[26] abbreviates: FDA library drug in complete media.

Structures can show the parent of a compound that is named as a salt.

With `CC1(C)O[C@@H]2C[C@H]3[C@@H]4C[C@H](F)C5=CC(=O)C=C[C@]5(C)[C@H]4[C@@H](O)C[C@]3(C)[C@]2(C(=O)CO)O1` [Flunisolide], the Difference is −0.06 in assay [1] (setting [3]) and 0.07 in assay [2] (setting [8]). In assay [1] (setting [4]), this molecule registered a Cholesterol-free of 0.8546. The Complete in assay [1] (setting [5]) was 0.7935. The “Cholesterol-free media + simvastatin (0.04 μM)” value in assay [2] (setting [6]) was determined as 0.5373. In assay [2] (setting [7]), the “Complete Media” value is listed as 0.6048.
`OCCN1CCN(CCCN2c3ccccc3Sc3ccc(Cl)cc32)CC1` [Perphenazine]: the Difference in assay [1] (setting [3]) stood at 0.00; in assay [2] (setting [8]), 0.25. For the same molecule, the Cholesterol-free in assay [1] (setting [4]) amounted to 0.9098. In addition, the Complete in assay [1] (setting [5]) is on record as 0.9103. Moreover, the “Cholesterol-free media + simvastatin (0.04 μM)” value in assay [2] (setting [9]) is 0.707. Moreover, the “Complete Media” value in assay [2] (setting [10]) came out at 0.9554.
Regarding `Cc1c(-c2ccccc2)oc2c(C(=O)OCCN3CCCCC3)cccc2c1=O` [Flavoxate (hydrochloride)], the Difference is reported as 0.01 in assay [1] (setting [3]) and −0.07 in assay [2] (setting [13]). This molecule also registered a Cholesterol-free in assay [1] (setting [4]) of 0.984. In assay [1] (setting [5]), the Complete worked out at 0.9957. For the same molecule, the “Cholesterol-free media + simvastatin (0.04 μM)” value in assay [2] (setting [11]) is on record as 0.9542. The “Complete Media” value in assay [2] (setting [12]) was 0.8849.
With `C[C@@H]1CN(c2c(F)c(N)c3c(=O)c(C(=O)O)cn(C4CC4)c3c2F)C[C@H](C)N1` [Sparfloxacin], the Difference in assay [1] (setting [14]) is −0.52; in assay [2] (setting [8]), 0.17. The molecule also gave a Cholesterol-free in assay [1] (setting [15]) of 1.45. Moreover, the Complete in assay [1] (setting [16]) is 0.9275. In addition, in assay [2] (setting [9]), the “Cholesterol-free media + simvastatin (0.04 μM)” value was 0.949. The “Complete Media” value in assay [2] (setting [10]) is on record as 1.118.
Consider `CN1CCN(c2cc3c(nn2)Oc2ccccc2N3C)CC1.Cl.Cl.O` [Azaphen (dihydrochloride monohydrate)], for which, in assay [1] (setting [17]), the Cholesterol-free is given as 1.204. The molecule further yielded a Complete in assay [1] (NCI-H292 cells, complete media) of 0.7783. The Difference was −0.43 in assay [1] (complete vs cholesterol-free media, […]) and −0.09 in assay [2] (complete media vs cholesterol-free media + simvastatin (0.04 μM), […]). In assay [2] (setting [9]), the “Cholesterol-free media + simvastatin (0.04 μM)” value came out at 1.02. In addition, the “Complete Media” value in assay [2] (setting [10]) amounted to 0.9251.
Take Tedizolid (phosphate): the Difference in assay [1] (setting [3]) is on record as −0.01; in assay [2] (setting [8]), 0.04. In assay [1] (setting [4]), this molecule yielded a Cholesterol-free of 0.8406. The molecule also yielded a Complete in assay [1] (setting [5]) of 0.8345. For the same molecule, in assay [2] (setting [6]), the “Cholesterol-free media + simvastatin (0.04 μM)” value is 0.7735. Further, the “Complete Media” value in assay [2] (setting [7]) was 0.8096.
For `C[C@@H](NCCCc1cccc(C(F)(F)F)c1)c1cccc2ccccc12` [Cinacalcet], the Cholesterol-free in assay [1] (setting [4]) is 0.8181. The molecule also registered a Complete in assay [1] (setting [5]) of 1.378. In addition, the Difference is 0.56 in assay [1] (setting [18]) and 0.06 in assay [2] (setting [8]). Also, in assay [2] (setting [6]), the “Cholesterol-free media + simvastatin (0.04 μM)” value came out at 0.8605. Moreover, the “Complete Media” value in assay [2] (setting [7]) is on record as 0.9247.
Take `C=C[C@@H]1C[C@]1(NC(=O)[C@@H]1C[C@@H]2CN1C(=O)[C@H](C(C)(C)C)NC(=O)O[C@@H]1C[C@H]1CCCCCc1nc3ccc(OC)cc3nc1O2)C(=O)NS(=O)(=O)C1CC1.O` [Grazoprevir]: the Difference was −0.09 in assay [1] (setting [19]) and 0.02 in assay [2] (complete media minus cholesterol-free media + simvastatin, […]). Besides, the Cholesterol-free in assay [1] (setting [20]) was 1.057. This molecule displayed a Complete in assay [1] (setting [21]) of 0.9626. The “Cholesterol-free media + simvastatin (0.04 μM)” value in assay [2] (cholesterol-free media with simvastatin 0.04 μM, […]) was 0.9215. The “Complete Media” value in assay [2] (complete media, […]) is 0.9383.
Take Dimemorfan (phosphate): the Difference was −0.08 in assay [1] (setting [19]) and −0.07 in assay [2] (setting [22]). Moreover, the Cholesterol-free in assay [1] (setting [20]) is on record as 0.9351. Further, the Complete in assay [1] (setting [21]) is 0.8552. In addition, the “Cholesterol-free media + simvastatin (0.04 μM)” value in assay [2] (setting [11]) was 0.9385. The “Complete Media” value in assay [2] (setting [12]) was determined as 0.8687.
Take `C[C@H]1C[C@H]2[C@@H]3CCC4=CC(=O)C=C[C@]4(C)[C@@]3(F)[C@@H](O)C[C@]2(C)[C@@]1(O)C(=O)CO` [Betamethasone]: the Difference in assay [1] (setting [3]) is recorded as −0.03; in assay [2] (setting [23]), −0.15. This molecule yielded a Cholesterol-free in assay [1] (setting [4]) of 0.6463. In assay [1] (setting [5]), this molecule displayed a Complete of 0.6113. In addition, the “Cholesterol-free media + simvastatin (0.04 μM)” value in assay [2] (setting [9]) is recorded as 1.093. Besides, the “Complete Media” value in assay [2] (setting [10]) was found to be 0.9456.
Take `COC(=O)[C@H](c1ccccc1Cl)N1CCc2sccc2C1` [Clopidogrel]: the results for the Difference in assay [1] (setting [3]) and in assay [2] (setting [13]) were −0.02 and −0.07, respectively. In addition, the Cholesterol-free in assay [1] (setting [4]) was determined as 0.9805. In assay [1] (setting [5]), this molecule had a Complete of 0.958. Moreover, the “Cholesterol-free media + simvastatin (0.04 μM)” value in assay [2] (setting [11]) is 1.038. In addition, the “Complete Media” value in assay [2] (setting [12]) is 0.969.
For the molecule `CCN1CCN(C(=O)N[C@@H](C(=O)N[C@@H]2C(=O)N3[C@@H]2SC(C)(C)[C@@H]3C(=O)[O-])c2ccccc2)C(=O)C1=O.[Na+]` [Piperacillin (sodium)], the Difference is listed as −0.14 in assay [1] (setting [24]) and −1.15 in assay [2] (setting [13]). This molecule also had a Cholesterol-free in assay [1] (setting [20]) of 1.282. This molecule registered a Complete in assay [1] (setting [21]) of 1.138. Besides, the “Cholesterol-free media + simvastatin (0.04 μM)” value in assay [2] (setting [9]) was 2.325.
As to `O=S(=O)(O)c1cc(O)ccc1O` [Ethamsylate], the Difference in assay [1] (setting [14]) is listed as −0.53; in assay [2] (setting [23]), −0.15. Moreover, the Cholesterol-free in assay [1] (setting [15]) came out at 1.652. This molecule also came in with a Complete in assay [1] (setting [16]) of 1.118. For the same molecule, the “Cholesterol-free media + simvastatin (0.04 μM)” value in assay [2] (setting [9]) is given as 1.397. Besides, the “Complete Media” value in assay [2] (setting [10]) turned out to be 1.245.
As for `CC[C@H]1[C@@H]2C[C@H]3[C@@H]4N(C)c5ccccc5[C@]45C[C@@H]([C@H]2[C@H]5O)N3[C@@H]1O` [Ajmaline], the Difference in assay [1] (setting [19]) was −0.16; in assay [2] (setting [22]), 0.00. In assay [1] (setting [20]), the Cholesterol-free stood at 1.107. In assay [1] (setting [21]), the Complete is 0.943. Further, the “Cholesterol-free media + simvastatin (0.04 μM)” value in assay [2] (setting [11]) was determined as 1.33. Also, the “Complete Media” value in assay [2] (setting [12]) worked out at 1.333.
`NC(=O)NC1NC(=O)NC1=O` (centres unmarked) [Allantoin]: the Difference in assay [1] (setting [24]) is reported as −0.09; in assay [2] (setting [23]) it was −0.51. Also, in assay [1] (setting [20]), the Cholesterol-free came to 0.5704. Also, the Complete in assay [1] (setting [21]) stood at 0.4823. In addition, the “Cholesterol-free media + simvastatin (0.04 μM)” value in assay [2] (setting [25]) was determined as 1.146. Also, the “Complete Media” value in assay [2] (setting [26]) came to 0.6387.
With `Cc1ncc(CSSCc2cnc(C)c(O)c2CO)c(CO)c1O` [Pyrithioxin (dihydrochloride)], in assay [1] (setting [4]), the Cholesterol-free is on record as 0.8349. This molecule also showed a Complete in assay [1] (setting [5]) of 1.062. In addition, the Difference in assay [1] (setting [18]) is 0.23; in assay [2] (setting [8]) it was 0.15. Moreover, the “Cholesterol-free media + simvastatin (0.04 μM)” value in assay [2] (setting [9]) turned out to be 0.9622. The “Complete Media” value in assay [2] (setting [10]) is reported as 1.11.
On to `CC(C)CCC[C@@H](C)[C@H]1CC[C@H]2[C@@H]3CC=C4C[C@@H](O)CC[C@]4(C)[C@H]3CC[C@]12C` [Cholesterol], for which the Difference was −0.27 in assay [1] (setting [3]) and −0.63 in assay [2] (setting [23]). The same molecule registered a Cholesterol-free in assay [1] (setting [17]) of 1.34. Further, the Complete in assay [1] (NCI-H292 cells, complete media) is given as 1.074. The “Cholesterol-free media + simvastatin (0.04 μM)” value in assay [2] (setting [25]) was determined as 1.697. Further, the “Complete Media” value in assay [2] (setting [26]) is listed as 1.069.
In the case of `CC[C@H]1OC(=O)[C@H](C)[C@@H](O[C@H]2C[C@@](C)(OC)[C@@H](O)[C@H](C)O2)[C@H](C)[C@@H](O[C@@H]2O[C@H](C)C[C@H](N(C)C)[C@H]2O)[C@](C)(O)C[C@@H](C)CN(C)[C@H](C)[C@@H](O)[C@]1(C)O` [Azithromycin], the Difference was 0.05 in assay [1] (setting [3]) and −0.17 in assay [2] (setting [23]). In assay [1] (setting [4]), the Cholesterol-free is reported as 1.249. The Complete in assay [1] (setting [5]) was determined as 1.303. The “Cholesterol-free media + simvastatin (0.04 μM)” value in assay [2] (drug in cholesterol-free media with simvastatin 0.04 μM) is 1.336. Moreover, the “Complete Media” value in assay [2] (drug in complete media) came to 1.162.
